Measured values taken from PMC3724985, “Isolation, biochemical characterization, and cloning of a bacteriocin from the poultry-associated Staphylococcus aureus strain CH-91” (Applied Microbiology and Biotechnology, 2012).
Values after ≈ are worked out from the molar mass of the structure shown. “Also recorded” adds a separate entry of the source.

Experiments:
[1] = system: Micrococcus luteus CBM; assay: MIC, micro-dilution method; type: cell-based; conditions: M. luteus CBM, CLSI M7-A7, cation-adjusted MHB
Excerpt: (§1) S. aureus CH-91 was kindly provided by S. Takeuchi from Fukui Prefectural University, Japan (Takeuchi et al. [1999]). The strain has been deposited in the DSMZ collection under the number DSM 26258. Bacillus licheniformis NCTC 7224, Bacillus subtilis ATCC 6633, Lactococcus lactis subsp. lactis LOCK 0869, Micrococcus luteus strains DSMZ 20030 and CBM (clinical isolate), Sarcina lutea ATCC 9341, S. aureus strains ATCC 25923, M-122 (Polakowska et al. [2012]), Newman and RN4220, S. epidermidis ATCC 35347, Staphylococcus intermedius ATCC 29666, Staphylococcus pseudintermedius LMG 22219 (Devriese et al. [2005]), Staphylococcus saprophyticus ATCC 49453, Staphylococcus xylosus strains isolated from the skin of healthy chickens, Streptococcus mutans ATCC 25175, Streptococcus pneumoniae ATCC 49619, Escherichia coli K12 ATCC 10798, Klebsiella pneumoniae, Serratia marcescens, and Sphingomonas sp. AMC 3962 (Dziga et al. [2012]) were obtained from the collections of The Faculty of Biochemistry, Biophysics and Biotechnology, Jagiellonian University, Krakow, Poland. […]
(§2) The bactericidal activity of BacCH91 was determined using the micro-dilution method in compliance with Clinical and Laboratory Standards Institute guidelines M7-A7 (CLSI [2006]). […] After overnight incubation at 37 °C, the optical density (OD) at 600 nm was measured. […]

[2] = system: Micrococcus luteus DSMZ 20030; assay: MIC, micro-dilution method; type: cell-based; conditions: M. luteus DSMZ 20030, as printed in the text, CLSI M7-A7, cation-adjusted MHB
Excerpt: as §1, §2

[3] = system: Pseudomonas aeruginosa ATCC 27853; type: cell-based
[4] = system: Gram-negative strains; assay: MIC, micro-dilution method, Gram-negative strains as a group; type: cell-based; conditions: highest (maximal) concentration tested 100 μM, CLSI M7-A7, cation-adjusted MHB
Excerpt: as §1, §2

[5] = system: staphopain C (StpC); conditions: 30 μM, 100 mM bis-Tris pH 6.4 or Tris–HCl pH 7.5 with 5 mM cysteine hydrochloride and 5 mM EDTA, 1:20 by weight, 1 h at 37 °C; radial diffusion assay and HPLC
Procedure: (§3) For pH, temperature, and protease resistance assays, the residual activity of BacCH91 was determined using the radial diffusion assay (Lemos Miguel et al. [2008]). In brief, plates were prepared containing 200× diluted overnight culture of S. lutea ATCC 9341 in TSB agar (1 %, w/v). Wells (2.4 mm diameter) were cut in the agar and filled with 10 μl of the BacCH91 preparation for testing. Following overnight incubation at 37 °C, the residual activity was measured as the diameter of inhibition zones.
(§4) We evaluated the susceptibility of BacCH91 to proteolysis by aureolysin; staphopains A, B, and C; V8 peptidase (Biocentrum); bovine alpha-chymotrypsin and TPCK-treated trypsin (Sigma); human elastase and cathepsin G (Biocentrum); pepsin from porcine gastric mucosa (Sigma); and proteinase K (A&A Biotechnology). […] The residual activity was determined with the radial diffusion assay using S. lutea as an indicator strain, and the bacteriocin molecule integrity was assessed using HPLC. […]

[6] = system: staphylococcal extracellular peptidases (aureolysin; staphopains A, B, and C; V8 peptidase); conditions: 30 μM, pH 6.4 or pH 7.5/7.8, enzyme/bacteriocin 1:20 by weight, 1 h at 37 °C; radial diffusion assay and HPLC; triplicate
Procedure: as §3, §4

[7] = target: T1, proteinase K (Parengyodontium album, UniProt P06873); assay: Susceptibility to proteolysis, proteinase K; type: in vitro ADME; conditions: 30 μM, enzyme/bacteriocin 1:20 by weight, 1 h at 37 °C; radial diffusion assay and HPLC
T1 construct: purchased A&A Biotechnology
Procedure: All of the above experiments were performed in triplicate. The final results are presented as means ± SD.

[8] = system: StpC; assay: Influence of StpC on biosynthesis and stability of BacCH91 in S. aureus CH-91 culture (E-64, HPLC); conditions: S. aureus CH-91 in TSB with or without E-64 (0.01, 0.1, 1.0 mM); samples at 5, 10, 24 h; HPLC peak area at 220 nm
Procedure: S. aureus CH-91 was cultured at 37 °C in TSB supplemented with the cysteine peptidase inhibitor E-64 (1-[N-[(L-3-trans-carboxyoxirane-2-carbonyl)-L-leucyl] amino]-4-guanidinobutane; Sigma) at final concentrations of 1.0, 0.1, and 0.01 mM. Aliquots were removed at 5, 10, and 24 h, and the bacteria-free supernatants were obtained by centrifugation.
To estimate the level of BacCH91, the collected supernatants were acidified with TFA (1 % final concentration, v/v) and filtered (0.45 μm filter). Aliquots (30 μl) were analyzed using HPLC (Kromasil C4 column, 250 × 4.6 mm; Supelco) and the same buffers as those used during the purification procedure. The column was flushed for 5 min following injection at a constant concentration of 34 % B. A linear gradient from 34 to 100 % B was then applied over 10 min at 1 ml/min. Under these conditions, BacCH91 was detected at 220 nm as a single peak eluting with a retention time of 14.6 min. The relative amount of bacteriocin was calculated as the area under the peak.

T1 sequence (P06873 106-384): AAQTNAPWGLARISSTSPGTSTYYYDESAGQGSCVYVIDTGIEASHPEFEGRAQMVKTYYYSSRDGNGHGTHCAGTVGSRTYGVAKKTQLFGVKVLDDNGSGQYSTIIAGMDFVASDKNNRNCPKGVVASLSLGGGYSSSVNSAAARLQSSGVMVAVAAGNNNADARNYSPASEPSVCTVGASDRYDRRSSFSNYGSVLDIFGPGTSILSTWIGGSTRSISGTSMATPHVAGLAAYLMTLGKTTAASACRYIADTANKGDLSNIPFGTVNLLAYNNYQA

Q: What does the source list for `C/C=C(\NC(=O)[C@H](CCCCN)NC(=O)CNC(=O)[C@@H]1CS[C@@H](C)[C@@H](NC(=O)[C@@H]2CSC[C@@H](NC(=O)/C(=C/C)NC(=O)[C@@H](N)[C@@H](C)CC)C(=O)N[C@@H](Cc3ccccc3)C(=O)N[C@@H]([C@@H](C)CC)C(=O)NCC(=O)N2)C(=O)N2CCC[C@H]2C(=O)NCC(=O)N1)C(=O)NCC(=O)N[C@@H]1CSC[C@@H]2NC(=O)[C@H](Cc3ccccc3)NC(=O)[C@@H](CS/C=C\NC2=O)NC(=O)[C@H](CC(N)=O)NC(=O)[C@H](Cc2ccccc2)NC1=O` [BacCH91]?
A: MIC [1]: 0.04 µM (≈ 0.0831 µg/mL); MIC [2]: 0.0025 µM (≈ 0.00519 µg/mL); MIC [3]: >100 µM; susceptibility of Gram-negative strains to BacCH91 [4]: ineffective; also recorded: None of the Gram-negative species assayed were susceptible; effect of StpC on BacCH91 [5]: not affected; effect of staphylococcal peptidases on BacCH91 [6]: not affected; effect of proteinase K on BacCH91 [7]: unaffected; effect of StpC on the stability of the lantibiotic in culture [8]: does not affect the stability
